Assay results taken from patent US20110230472A1, “RING-FUSED AZOLE DERIVATIVE HAVING PI3K-INHIBITING ACTIVITY” (Shionogi & Co., Ltd., priority 2008, published 2011).

How the values were obtained:
Type in all cases: in vitro ADME
Metabolic stability test = conditions: human liver microsome 0.5 mg protein/mL, 1 mmol/L NADPH, 37° C.
Procedure, shortened: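 Pooled human liver microsomes (0.5 mg protein/mL) incubated with compound and 1 mmol/L NADPH at 37° C. in pH 7.4 Tris buffer for 0 or 30 min. Parent quantified by LC/MS/MS after methanol/acetonitrile quench; value is % remaining at 30 min versus 0 min.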

CYP2C9 = target: T1, CYP2C9 (Homo sapiens, UniProt P11712); assay: CYP inhibition test, pooled human liver microsome, CYP2C9; conditions: methyl-hydroxylation of tolbutamide
T1 construct: enzyme: pooled human liver microsome 0.2 mg protein/mL; from tissue; host or cells: pooled human liver microsome
T1 sequence (P11712 whole entry): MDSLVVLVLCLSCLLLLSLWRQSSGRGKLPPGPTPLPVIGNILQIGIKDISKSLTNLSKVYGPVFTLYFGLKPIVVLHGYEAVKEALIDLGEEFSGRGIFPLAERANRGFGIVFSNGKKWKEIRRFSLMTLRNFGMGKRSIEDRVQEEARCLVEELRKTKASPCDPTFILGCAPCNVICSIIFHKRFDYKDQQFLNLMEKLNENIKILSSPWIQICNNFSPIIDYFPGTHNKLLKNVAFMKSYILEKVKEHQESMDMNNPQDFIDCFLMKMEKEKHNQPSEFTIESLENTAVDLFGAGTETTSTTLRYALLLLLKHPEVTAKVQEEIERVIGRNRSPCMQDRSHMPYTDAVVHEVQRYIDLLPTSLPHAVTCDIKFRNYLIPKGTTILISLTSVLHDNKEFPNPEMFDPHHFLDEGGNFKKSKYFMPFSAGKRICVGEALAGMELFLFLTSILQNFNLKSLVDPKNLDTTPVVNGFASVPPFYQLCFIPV
Description: (§1) O-de-ethylation of 7-ethoxyresorufin (CYP1A2), methyl-hydroxylation of tolbutamide (CYP2C9), 4′-hydroxylation of mephenyloin (CYP2C19), O-demethylation of dextromethorphan (CYP2D6), and hydroxylation of terfenadine (CYP3A4), which are typical substrate for metabolic reactions of human main CYP5 molecular species (CYP1A2, 2C9, 2C19, 2D6, and 3A4), were adopted as indexes.
(§2) The reaction conditions are as follows: substrate: 0.5 μmol/L of ethoxyresorufin (CYP1A2), 100 μmol/L of tolbutamide (CYP2C9), […] of S-mephenyloin (CYP2C19), 5 μmol/L of dextromethorphan (CYP2D6), and 1 μmol/L of terfenadine (CYP3A4); reaction time; 15 minutes; reaction temperature: 37° C.; enzyme: pooled human liver microsome 0.2 mg protein/mL; test drug concentration: 1, 5, 10, and 20 μmol/L (4 points).
(§3) In a 96-well plate, as a reaction solution, five kinds of substrates, a human liver microsome, and a test drug were added to 50 mmol/L Hepes buffer solution in the aforementioned ratio. A coenzyme NADPH was added to start a metabolic reaction, which is an index. After reacting at 37° C. for 15 minutes, a solution of methanol/acetonitrile (1/1 (v/v)) was added to quench the reaction. After centrifugation at 3000 rpm for 15 minutes, resorufin (CYP1A2 metabolite) in the supernatant was quantitated with a fluorescence multilabel counter, and hydroxylated tolbutamide (CYP2C9 metabolite), 4′-hydroxylated mephenyloin (CYP2C19 metabolite), […], terfenadine in alcohol form (CYP3A4 metabolite) were quantitated with LC/MS/MS.
(§4) The case wherein only DMSO (a solvent which dissolved a drug) was added to a reaction system was defined as a control (100%). When a test drug solution was added, the remaining activity (%) at each concentration was calculated, and then IC50 was calculated with a concentration and an inhibition ratio by an inverse estimation using a logistic model.

CYP1A2 = target: T2, CYP1A2 (Homo sapiens, UniProt P05177); assay: CYP inhibition test, pooled human liver microsome, CYP1A2; conditions: O-de-ethylation of 7-ethoxyresorufin
T2 construct: enzyme: pooled human liver microsome 0.2 mg protein/mL; from tissue; host or cells: pooled human liver microsome
T2 sequence (P05177 1-516): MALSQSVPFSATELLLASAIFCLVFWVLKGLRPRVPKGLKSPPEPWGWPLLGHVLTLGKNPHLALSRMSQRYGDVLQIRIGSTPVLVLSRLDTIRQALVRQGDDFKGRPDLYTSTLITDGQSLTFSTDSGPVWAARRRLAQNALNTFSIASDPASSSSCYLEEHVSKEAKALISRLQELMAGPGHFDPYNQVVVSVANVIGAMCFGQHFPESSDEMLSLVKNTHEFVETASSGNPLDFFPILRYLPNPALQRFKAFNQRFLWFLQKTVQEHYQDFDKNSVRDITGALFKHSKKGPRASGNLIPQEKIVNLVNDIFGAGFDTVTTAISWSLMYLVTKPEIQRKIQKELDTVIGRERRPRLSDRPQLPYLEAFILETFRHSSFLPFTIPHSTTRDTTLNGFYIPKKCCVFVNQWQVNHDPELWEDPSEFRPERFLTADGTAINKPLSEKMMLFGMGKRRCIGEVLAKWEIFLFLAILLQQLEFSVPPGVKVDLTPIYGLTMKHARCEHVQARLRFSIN
Description: as §1, §2, §3, §4
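For percentage of the test compound remained after reacting for 30 minutes in this document: 100% equals the compound amount at 0 min reaction.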

CNC(=O)Nc1cc2n(n1)CCN2c1ccc(S(C)(=O)=O)cc1 [Compound I-89]
percentage of the test compound remained after reacting for 30 minutes (Metabolic stability test): 93.6%
IC50 (CYP2C9): > 20 µM
IC50 (CYP1A2): > 20 µM

CNC(=O)Nc1nc2c(s1)CN(c1cc(Cl)nc(N)n1)CC2 [Compound I-118]
percentage of the test compound remained after reacting for 30 minutes (Metabolic stability test): 98.3%
IC50 (CYP2C9): > 20 µM
IC50 (CYP1A2): > 20 µM

CNC(=O)Nc1nc2c(s1)CN(c1ccnc(OC)n1)CC2 [Compound I-142]
percentage of the test compound remained after reacting for 30 minutes (Metabolic stability test): 97.5%
IC50 (CYP2C9): > 20 µM
IC50 (CYP1A2): > 20 µM

CNC(=O)Nc1cc2n(n1)CCN2c1cc(C(=O)N2CCOCC2)cc(-c2ccc(N)nc2)c1 [Compound I-200]
percentage of the test compound remained after reacting for 30 minutes (Metabolic stability test): 98.6%
IC50 (CYP2C9): > 20 µM
IC50 (CYP1A2): > 20 µM

COc1cc(N2CCc3nc(NC(=O)NCC(=O)O)sc3C2)nc(OC)n1 [Compound I-208]
percentage of the test compound remained after reacting for 30 minutes (Metabolic stability test): 87.2%
IC50 (CYP2C9): > 20 µM
IC50 (CYP1A2): > 20 µM

COc1cc(N2CCc3nc(NC(=O)NCc4cc(=O)[nH]o4)sc3C2)nc(OC)n1 [Compound I-279]
percentage of the test compound remained after reacting for 30 minutes (Metabolic stability test): 99.7%
IC50 (CYP2C9): > 20 µM
IC50 (CYP1A2): > 20 µM

CN1CCc2cc(N3CCn4nc(NC(=O)c5cccnc5)cc43)ccc2C1=O [Compound I-347]
percentage of the test compound remained after reacting for 30 minutes (Metabolic stability test): 92%
IC50 (CYP2C9): > 20 µM
IC50 (CYP1A2): > 20 µM

CN1CCc2cc(N3CCn4nc(NC(=O)c5ccco5)cc43)ccc2C1=O [Compound I-358]
percentage of the test compound remained after reacting for 30 minutes (Metabolic stability test): 88.4%
IC50 (CYP2C9): > 20 µM
IC50 (CYP1A2): > 20 µM
